Experimental data as given in PubChem BioAssay AID200 (DTP/NCI, 2004).
Values joined by “and” are separate entries in the source; they are usually repeats but may differ in a detail not shown here. Identical values can stand only once. Toxic doses and inconclusive results are not listed. *1 amine or outer side, *2 acyl side, *3 side chain or, on linkers, in order; H or OH if unused. Where a SMILES comes first, the peptide text is derived from it. Bridges are numbered along the chain shown (N, C = ends). [ ]: non-standard residue; d: D form. The star is where a group is joined. X5 = CC(C)C(C)C(C(=O)[*:2])N(C)[*:1]; Picolinoyl(3-OH) = O=C(c1ncccc1O)*; NMePhg = CN[CH](C(=O)O)c1ccccc1; Hyp = O=C(O)[CH]1C[CH](O)CN1; Sar = CNCC(=O)O

System: B6C3F1 mice, B16 melanoma ip, median survival T/C
Assay: NCI In Vivo Anticancer Drug Screen. Data for tumor model B16 Melanoma (intraperitoneal) in B6C3F1 mice
Conditions: endpoint: median survival time, higher = longer survival
Method in brief: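 Tumor-bearing mice received test compound; a separate group got vehicle only. Survival was then compared, with results reported as treated over control.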

[1] = dose: 50.0 mg/kg/injection, schedule: Q01DX009 (ip), vehicle: Klucel (hydroxypropylcellulose) (HPC)
[2] = dose: 100.0 mg/kg/injection, schedule: Q01DX009 (ip), vehicle: Klucel (hydroxypropylcellulose) (HPC)
[3] = dose: 200.0 mg/kg/injection, schedule: Q01DX009 (ip), vehicle: Klucel (hydroxypropylcellulose) (HPC)
[4] = dose: 50.0 mg/kg/injection, schedule: Q01DX009 (ip), vehicle: saline with Tween-80
[5] = dose: 100.0 mg/kg/injection, schedule: Q01DX009 (ip), vehicle: saline with Tween-80
[6] = dose: 200.0 mg/kg/injection, schedule: Q01DX009 (ip), vehicle: saline with Tween-80
[7] = dose: 12.5 mg/kg/injection, schedule: Q01DX009 (ip), vehicle: saline with Tween-80
[8] = dose: 25.0 mg/kg/injection, schedule: Q01DX009 (ip), vehicle: saline with Tween-80
[9] = dose: 3.12 mg/kg/injection, schedule: Q01DX009 (ip), vehicle: saline with Tween-80
[10] = dose: 6.25 mg/kg/injection, schedule: Q01DX009 (ip), vehicle: saline with Tween-80

For `CC1OC(O[C@H]2C[C@](O)(C(C)O)Cc3c(O)c4c(c(O)c32)C(=O)c2c(O)cccc2C4=O)CC(NC=O)C1O` (stereo not given in full), the T/C (dose: 0.62 mg/kg/injection, schedule: Q01DX001 (ip), vehicle: water) was 158 % of control, the T/C (dose: 1.25 mg/kg/injection, schedule: Q01DX001 (ip), vehicle: water) was 185 % of control and the T/C (dose: 2.5 mg/kg/injection, schedule: Q01DX001 (ip), vehicle: distilled water + Tween-80) was 288 % of control. For the same molecule, the T/C (dose: 2.5 mg/kg/injection, schedule: Q01DX001 (ip), vehicle: water) was 257 % of control and the T/C (dose: 5.0 mg/kg/injection, schedule: Q01DX001 (ip), vehicle: water) was 170 % of control.
With `C=C(C)C(=O)O[C@H]1CC2=C[C@@H](C[C@@]3(C)O[C@@H]3[C@H]3OC(=O)C(=C)[C@@H]31)OC2=O` the T/C (dose: 3.75 mg/kg/injection, schedule: Q01DX009 (ip), vehicle: Klucel (hydroxypropylcellulose) (HPC)) was 101 % of control, the T/C (dose: 7.5 mg/kg/injection, schedule: Q01DX009 (ip), vehicle: Klucel (hydroxypropylcellulose) (HPC)) was 107 % of control and the T/C (dose: 15.0 mg/kg/injection, schedule: Q01DX009 (ip), vehicle: Klucel (hydroxypropylcellulose) (HPC)) was 103 % of control.
In the case of `Cc1cn(C2CC3[O][Sn]([c]4ccccc4)([c]4ccccc4)[O]CC3O2)c(=O)[nH]c1=O` (stereo not given), the T/C (dose: 25.0 mg/kg/injection, schedule: Q01DX009 (ip), vehicle: suspension in saline) is reported as 102 % of control, the T/C (dose: 50.0 mg/kg/injection, schedule: Q01DX009 (ip), vehicle: suspension in saline) is reported as 103 % of control and the T/C (dose: 100.0 mg/kg/injection, schedule: Q01DX009 (ip), vehicle: suspension in saline) is reported as 113 % of control. The T/C (dose: 200.0 mg/kg/injection, schedule: Q01DX009 (ip), vehicle: suspension in saline) was 93 % of control.
In the case of `Oc1ccc(OCc2ccccc2)cc1`, the T/C (dose: 12.5 mg/kg/injection, schedule: Q01DX009 (ip), vehicle: Klucel (hydroxypropylcellulose) (HPC)) is reported as 107 % of control and 100 % of control, the T/C (dose: 25.0 mg/kg/injection, schedule: Q01DX009 (ip), vehicle: Klucel (hydroxypropylcellulose) (HPC)) is reported as 91 % of control and 102 % of control and the T/C [1] is reported as 90 % of control and 96 % of control. The T/C [2] was 100 % of control and 107 % of control, the T/C [3] was 98 % of control [middle of 4 runs] and the T/C (dose: 400.0 mg/kg/injection, schedule: Q01DX009 (ip), vehicle: Klucel (hydroxypropylcellulose) (HPC)) was 102 % of control and 94 % of control.
`Oc1ccc2ccccc2c1N=Nc1ccc(F)cc1` was tested, and the T/C [4] was 111 % of control and 113 % of control, the T/C [5] was 120 % of control and the T/C [6] was 109 % of control and 123 % of control. The T/C (dose: 400.0 mg/kg/injection, schedule: Q01DX009 (ip), vehicle: saline with Tween-80) was 113 % of control and 106 % of control.
With `O=C(Nc1nncs1)c1cccs1` the T/C [7] was 110 % of control, the T/C [8] was 105 % of control and the T/C [4] was 101 % of control. The T/C [5] was 108 % of control and 106 % of control and the T/C [6] was 121 % of control and 104 % of control.
With `C=COC(=O)N(C)C` the T/C [5] was 99 % of control and the T/C [6] was 97 % of control.
In the case of `C[CH2][Sn]([CH2]C)([CH2]C(=O)OC)[CH2]C(=O)OC`, the T/C (dose: 1.56 mg/kg/injection, schedule: Q01DX009 (ip), vehicle: saline with Tween-80) is reported as 95 % of control, the T/C [9] is reported as 107 % of control and the T/C [10] is reported as 90 % of control.
In the case of `COc1ccc2c(c1)n([O-])c1ccccc1[n+]2=O`, the T/C [7] is reported as 103 % of control, the T/C (dose: 18.0 mg/kg/injection, schedule: Q01DX009 (ip), vehicle: saline with Tween-80) is reported as 121 % of control and the T/C [8] is reported as 108 % of control. The T/C (dose: 30.0 mg/kg/injection, schedule: Q01DX009 (ip), vehicle: saline with Tween-80) was 101 % of control and 103 % of control, the T/C [4] was 113 % of control and 114 % of control and the T/C (dose: 83.33 mg/kg/injection, schedule: Q01DX009 (ip), vehicle: saline with Tween-80) was 108 % of control and 115 % of control.
With `CC(C)CC1NC(=O)C(NC(=O)c2ncccc2O)C(C)OC(=O)C(c2ccccc2)N(C)C(=O)C(C)NC(=O)C(C(C)C(C)C)N(C)C(=O)CN(C)C(=O)C2CC(O)CN2C1=O` (stereo not given) ({Picolinoyl(3-OH)}-TL[Hyp][Sar][X5]A[NMePhg]; ester 1-C; configuration not given here) the T/C [1] was 103 % of control, the T/C [2] was 107 % of control and the T/C [3] was 111 % of control.
`[CH3][Sn]([CH3])([Cl])[S]CCN` was tested, and the T/C (dose: 3.12 mg/kg/injection, schedule: Q01DX009 (ip), vehicle: saline) was 109 % of control and 102 % of control, the T/C (dose: 6.25 mg/kg/injection, schedule: Q01DX009 (ip), vehicle: saline) was 95 % of control and 96 % of control and the T/C (dose: 12.5 mg/kg/injection, schedule: Q01DX009 (ip), vehicle: saline) was 96 % of control and 102 % of control. The T/C (dose: 25.0 mg/kg/injection, schedule: Q01DX009 (ip), vehicle: saline) was 100 % of control and the T/C (dose: 50.0 mg/kg/injection, schedule: Q01DX009 (ip), vehicle: saline) was 97 % of control.
With `COc1ccc(-c2cc(=O)c3ccc4c(O)cccc4c3o2)cc1` the T/C [9] was 97 % of control, the T/C [10] was 88 % of control and the T/C [8] was 86 % of control. The T/C [4] was 93 % of control.
